# Entries after “also recorded” stand apart in the source; their conditions may differ.
# How the values were obtained:
# GABAB (1b,2) receptor = biological target: T1, GABAB (1b,2) receptor (Homo sapiens, UniProt Q9UBS5); test: Two-electrode voltage clamp at GABAB (1b,2) receptors co-expressed with GIRK1 and GIRK4 in Xenopus oocytes; type: cell-based; settings: for effect as agonist or antagonist: 300 μM compound; for current response to compound in the presence of GABA: 300 μM compound + 1 μM GABA; for current response to compound in the presence of GABA / response to compound alone: FIG. 10(a); for response to compound alone: 300 μM compound alone
# T1 construct: expressed in transfected cells; host or cells: Xenopus laevis oocytes injected with mRNA
# T1 sequence (Q9UBS5 1-844 isoform Q9UBS5-2): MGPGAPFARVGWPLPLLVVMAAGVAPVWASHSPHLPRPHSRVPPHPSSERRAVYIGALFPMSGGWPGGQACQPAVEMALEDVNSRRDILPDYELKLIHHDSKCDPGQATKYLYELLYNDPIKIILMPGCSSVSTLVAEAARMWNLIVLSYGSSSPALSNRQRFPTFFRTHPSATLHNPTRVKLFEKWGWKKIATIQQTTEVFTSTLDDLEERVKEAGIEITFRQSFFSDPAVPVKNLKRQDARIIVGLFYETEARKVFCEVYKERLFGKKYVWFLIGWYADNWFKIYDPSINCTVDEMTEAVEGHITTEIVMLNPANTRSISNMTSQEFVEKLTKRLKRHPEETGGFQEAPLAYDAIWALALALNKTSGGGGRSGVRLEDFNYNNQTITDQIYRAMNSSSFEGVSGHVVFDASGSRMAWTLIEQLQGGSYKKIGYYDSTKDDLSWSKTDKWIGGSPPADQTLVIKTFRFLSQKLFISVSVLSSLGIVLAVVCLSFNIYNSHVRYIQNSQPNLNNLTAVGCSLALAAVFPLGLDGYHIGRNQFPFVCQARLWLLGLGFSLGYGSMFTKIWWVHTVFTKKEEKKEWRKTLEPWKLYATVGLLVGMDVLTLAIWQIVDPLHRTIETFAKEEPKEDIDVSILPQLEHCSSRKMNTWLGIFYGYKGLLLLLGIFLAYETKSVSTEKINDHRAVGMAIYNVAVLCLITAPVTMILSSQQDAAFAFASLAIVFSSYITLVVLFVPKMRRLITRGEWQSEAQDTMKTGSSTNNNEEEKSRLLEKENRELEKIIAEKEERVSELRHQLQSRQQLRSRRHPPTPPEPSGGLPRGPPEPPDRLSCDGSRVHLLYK
# T1 sequence (O75899 42-941 partner): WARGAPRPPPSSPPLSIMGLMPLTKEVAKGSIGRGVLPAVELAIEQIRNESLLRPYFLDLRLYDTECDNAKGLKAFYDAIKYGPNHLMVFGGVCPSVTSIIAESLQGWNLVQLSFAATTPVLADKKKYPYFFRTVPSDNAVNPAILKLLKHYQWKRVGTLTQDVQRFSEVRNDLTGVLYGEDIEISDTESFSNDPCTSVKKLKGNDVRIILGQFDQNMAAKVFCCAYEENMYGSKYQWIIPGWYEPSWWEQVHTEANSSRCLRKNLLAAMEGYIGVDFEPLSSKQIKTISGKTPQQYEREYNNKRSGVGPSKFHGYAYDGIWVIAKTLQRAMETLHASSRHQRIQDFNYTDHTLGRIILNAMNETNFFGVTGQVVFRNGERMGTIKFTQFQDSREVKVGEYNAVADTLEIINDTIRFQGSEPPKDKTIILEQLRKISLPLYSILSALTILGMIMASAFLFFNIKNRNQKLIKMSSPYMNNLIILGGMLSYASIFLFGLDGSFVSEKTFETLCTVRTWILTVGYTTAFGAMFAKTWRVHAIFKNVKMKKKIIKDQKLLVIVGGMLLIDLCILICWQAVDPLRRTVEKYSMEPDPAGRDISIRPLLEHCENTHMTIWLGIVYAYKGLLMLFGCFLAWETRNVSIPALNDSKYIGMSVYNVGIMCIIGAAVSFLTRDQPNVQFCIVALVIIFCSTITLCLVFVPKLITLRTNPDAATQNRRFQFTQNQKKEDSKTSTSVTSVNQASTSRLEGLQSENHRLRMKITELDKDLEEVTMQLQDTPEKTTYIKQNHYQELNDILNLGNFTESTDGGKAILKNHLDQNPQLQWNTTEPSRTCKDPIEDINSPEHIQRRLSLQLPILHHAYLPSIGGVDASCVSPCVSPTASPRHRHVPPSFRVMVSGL
# GABAB (1a,2) receptor = biological target: T2, GABAB (1a,2) receptor (Homo sapiens, UniProt Q9UBS5); test: Two-electrode voltage clamp at GABAB (1a,2) receptors co-expressed with GIRK1 and GIRK4 in Xenopus oocytes; type: cell-based; settings: for effect as agonist or antagonist: 300 μM compound; for current response to compound in the presence of GABA: 300 μM compound + 3 μM GABA; for current response to compound in the presence of GABA / response to compound alone: FIG. 10(b); for response to compound alone: 300 μM compound alone
# T2 construct: expressed in transfected cells; host or cells: Xenopus laevis oocytes injected with mRNA
# T2 sequence (Q9UBS5 15-961 limits assumed): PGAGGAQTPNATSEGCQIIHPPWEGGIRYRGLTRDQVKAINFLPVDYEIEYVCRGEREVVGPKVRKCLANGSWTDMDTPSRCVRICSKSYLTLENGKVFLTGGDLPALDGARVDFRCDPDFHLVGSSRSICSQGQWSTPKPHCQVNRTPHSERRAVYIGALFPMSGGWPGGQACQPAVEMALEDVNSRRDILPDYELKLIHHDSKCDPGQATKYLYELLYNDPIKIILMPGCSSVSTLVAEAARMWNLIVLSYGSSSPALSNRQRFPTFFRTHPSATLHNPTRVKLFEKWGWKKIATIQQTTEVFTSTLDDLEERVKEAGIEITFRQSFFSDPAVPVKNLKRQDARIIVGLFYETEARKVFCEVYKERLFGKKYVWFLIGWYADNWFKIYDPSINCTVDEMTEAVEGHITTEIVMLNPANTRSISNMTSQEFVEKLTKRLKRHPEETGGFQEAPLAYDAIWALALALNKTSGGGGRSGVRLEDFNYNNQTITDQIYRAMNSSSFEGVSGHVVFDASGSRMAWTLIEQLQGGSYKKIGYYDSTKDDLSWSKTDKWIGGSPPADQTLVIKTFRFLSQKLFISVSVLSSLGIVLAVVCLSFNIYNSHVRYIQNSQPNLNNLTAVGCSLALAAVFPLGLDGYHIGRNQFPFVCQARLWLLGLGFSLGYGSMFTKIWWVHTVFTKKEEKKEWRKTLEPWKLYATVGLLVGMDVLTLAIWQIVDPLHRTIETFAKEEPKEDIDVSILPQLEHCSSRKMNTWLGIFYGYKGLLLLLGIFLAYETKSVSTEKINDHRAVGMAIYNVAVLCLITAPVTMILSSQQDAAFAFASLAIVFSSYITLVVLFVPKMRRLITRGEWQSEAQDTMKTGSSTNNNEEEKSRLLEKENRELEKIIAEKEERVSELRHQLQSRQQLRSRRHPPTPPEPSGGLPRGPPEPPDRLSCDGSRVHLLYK
# T2 sequence (O75899 42-941 partner): as the sequence (O75899 42-941 partner) above
# GABAC (ρ1) receptor = GABAC (ρ1) receptor (Homo sapiens, UniProt P24046); test: Two-electrode voltage clamp at GABAC (ρ1) receptors expressed in Xenopus oocytes; settings: for current response to compound in the presence of GABA: 100 μM compound + 1 μM GABA; for current response to compound in the presence of GABA / response to compound alone: FIG. 11(a); for response to compound alone: 100 μM compound alone; for Hill coefficient (nH) for GABA in the presence of the antagonist / I/Imax, maximal GABA response maintained in the presence of the antagonist: (±)-cis 40 μM or (±)-trans 30 μM; for I/Imax, maximal GABA response maintained in the presence of the antagonist / type of antagonism: FIG. 12; for type of antagonism: parallel shift of the GABA dose-response curves; for inhibition at 100 µM: read-out: inhibition of the GABA response
# Sequence of GABAC (ρ1) receptor (P24046 22-479): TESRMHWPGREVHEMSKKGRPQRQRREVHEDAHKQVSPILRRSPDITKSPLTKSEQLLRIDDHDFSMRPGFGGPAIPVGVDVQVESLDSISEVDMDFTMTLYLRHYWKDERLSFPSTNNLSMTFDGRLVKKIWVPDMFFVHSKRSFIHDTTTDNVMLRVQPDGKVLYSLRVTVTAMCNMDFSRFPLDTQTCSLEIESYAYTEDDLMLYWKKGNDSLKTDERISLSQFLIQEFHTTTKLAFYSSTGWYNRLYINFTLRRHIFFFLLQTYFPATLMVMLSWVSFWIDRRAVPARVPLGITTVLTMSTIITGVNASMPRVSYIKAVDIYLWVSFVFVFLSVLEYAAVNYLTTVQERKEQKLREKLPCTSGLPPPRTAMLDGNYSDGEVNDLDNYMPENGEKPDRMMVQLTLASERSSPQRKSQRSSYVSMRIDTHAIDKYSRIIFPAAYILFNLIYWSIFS
# Experimental: (§1) For example, ρ1 GABAC receptor subunit subcloned in ρ1 cDNA 1.1 and is linearised using the restriction enzyme Xbal . Following this, the mRNA is then prepared from the linearised ρ1 subunit using T7 polymerase. This genetic material is then injected into the Xenopus laevis oocytes and incubated for 2 to 9 days, to allow for the process of translation to occur. After this process the Xenopus laevis oocytes show expression of the receptor and ion channel assembly on the cell surface.
# (§2) Female Xenopus laevis frogs were anaesthetised with tricaine (850 mg/500 mL) and a lobe of their ovaries surgically removed. […] Stage V-VI oocytes were collected and stored in Frog Ringer (ND96) wash solution (96 mM NaCI, 2 mM KCI, 1 mM MgCl2.6H20, 1.8 mM CaCl2.2H2O, 5 mM HEPES (hemi-Na salt), pH 7.5) supplemented with 2.5 mM sodium pyruvate, 0.5 mM theophylline, and 50 μg/mL gentamicin.
# (§3) Micropipettes were prepared by the microprocessor-controlled vertical pipette puller (World Precision Instruments) and bevelled to a tip diameter of 10-20 μm. The micropipettes were filled with mineral oil to ensure the mRNA solution would be drawn up into the micropipette under negative pressure. A Nanoject injector (World Precision Instruments) was used to deliver GABAA, GABAB or GABAC mRNA (50 nL) into the cytoplasm of the Xenopus oocytes. After injection with the appropriate mRNA, the oocytes were placed in a storage solution of ND96 wash solution supplemented with 2.5 mM sodium pyruvate, 0.5 mM theophylline and gentamicin (50 μg/mL) and stored on a slow speed rotator in an 18° C. controlled temperature incubator (Contherm, Petone, NZ). The storage solution was changed daily (or twice daily) and dead or unhealthy oocytes were removed to prolong the health of the remaining cells.
# (§4) Prior to recording, 100 mM stock solutions of (±)-cis- and (±)-trans-3-ACPBPA were prepared using autoclaved MilliQ water and stored at −20° C. […] At the time the experiments were to be recorded, the stock solutions were diluted with ND96 wash solution for testing on GABAA and GABAC receptors or 45 mM K^+ solution (45 mM NaCI, 45 mM KCI, 1 mM MgCl2.6H2O, 1.8 mM CaCl2.2H2O, 5 mM HEPES (hemi-Na salt), pH 7.5 at 25° C.) for testing on GABAB receptors.
# (§5) After 2 to 9 days of incubation, receptor activity using two-electrode voltage clamp recordings were acquired by means of a Geneclamp 500 amplifier (Axon Instruments Inc., Foster City, Calif., USA), a MacLab 2e recorder (AD Instruments, Sydney, Australia) and Chart™ v.3.6.3 for Macintosh (AD Instruments) to digitise the current and voltage signals.
# (§6) The recording microelectrodes were prepared from borosilicate glass capillaries (1.2 mm i.d.×0.94 mm o.d.; Clark Electromedical Instruments, Pangbourne, UK) using a micropipette puller (World Precision Instruments). The microelectrodes (tip resistances 0.5-1.5 MΩ) were filled with 3 M potassium chloride and a microscope was used to direct the insertion of these microelectrodes into the oocyte positioned in the cell bath. The membrane potential of the oocyte was then voltage-clamped at −60 mV.
# (§7) Oocytes with an adequate level of receptor expression (with maximal currents (I)≧50 nA) were used for subsequent recording. […] Oocytes were washed for 3-4 minutes between applications of drug doses to ensure for receptor recovery.
# GABAC (ρ2) receptor = GABAC (ρ2) receptor (Homo sapiens, UniProt P28476); test: Two-electrode voltage clamp at GABAC (ρ2) receptors expressed in Xenopus oocytes; settings: for current response to compound in the presence of GABA: 100 μM compound + 1 μM GABA; for current response to compound in the presence of GABA / response to compound alone: FIG. 11(b); for response to compound alone: 100 μM compound alone; for inhibition at 100 µM: read-out: inhibition of the GABA response
# Sequence of GABAC (ρ2) receptor (P28476 21-465): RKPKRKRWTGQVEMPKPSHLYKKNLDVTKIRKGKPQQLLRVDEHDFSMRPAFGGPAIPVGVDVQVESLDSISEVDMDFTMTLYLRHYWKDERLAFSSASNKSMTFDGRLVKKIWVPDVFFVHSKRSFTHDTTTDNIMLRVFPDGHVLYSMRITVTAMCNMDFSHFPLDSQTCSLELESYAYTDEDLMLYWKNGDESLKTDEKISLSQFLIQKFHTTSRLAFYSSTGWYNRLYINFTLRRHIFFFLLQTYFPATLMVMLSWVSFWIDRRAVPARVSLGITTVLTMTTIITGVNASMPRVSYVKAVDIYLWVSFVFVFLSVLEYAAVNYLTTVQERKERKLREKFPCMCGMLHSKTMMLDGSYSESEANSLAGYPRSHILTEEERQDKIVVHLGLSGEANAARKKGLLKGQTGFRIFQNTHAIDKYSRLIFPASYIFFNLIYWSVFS
# Experimental: as §1, §2, §3, §4, §5, §6, §7
# GABAC (ρ3) receptor = biological target: T3, GABAC (ρ3) receptor (Rattus norvegicus, UniProt P50573); test: Two-electrode voltage clamp at GABAC (ρ3) receptors expressed in Xenopus oocytes; settings: for current response to compound in the presence of GABA: 100 μM compound + 10 μM GABA; for current response to compound in the presence of GABA / response to compound alone: FIG. 11(c); for response to compound alone: 100 μM compound alone; for inhibition at 100 µM: read-out: inhibition of the GABA response
# T3 sequence (P50573 16-464): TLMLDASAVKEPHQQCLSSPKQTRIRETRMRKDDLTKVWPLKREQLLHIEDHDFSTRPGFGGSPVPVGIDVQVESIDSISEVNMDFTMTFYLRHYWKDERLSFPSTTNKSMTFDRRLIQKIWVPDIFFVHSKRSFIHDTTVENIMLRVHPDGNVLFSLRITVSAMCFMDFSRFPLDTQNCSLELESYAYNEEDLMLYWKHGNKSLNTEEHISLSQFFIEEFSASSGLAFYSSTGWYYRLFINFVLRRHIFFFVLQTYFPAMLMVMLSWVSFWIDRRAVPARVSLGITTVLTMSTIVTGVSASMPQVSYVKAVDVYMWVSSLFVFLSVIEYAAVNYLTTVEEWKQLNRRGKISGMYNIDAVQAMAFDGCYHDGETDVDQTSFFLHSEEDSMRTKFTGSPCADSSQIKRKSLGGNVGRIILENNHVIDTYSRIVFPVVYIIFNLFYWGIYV
# Experimental: as §1, §2, §3, §4, §5, §6, §7
# GABAA (α2β2γ2s) receptor = GABAA (α2β2γ2s) receptor (Homo sapiens, UniProt P47869+P47870); test: Two-electrode voltage clamp at GABAA (α2β2γ2s) receptors expressed in Xenopus oocytes; settings: for effect as agonist or antagonist: 1 mM compound; for current response to compound in the presence of GABA: 1 mM compound + 3 μM GABA; for current response to compound in the presence of GABA / response to compound alone: FIG. 9; for response to compound alone: 1 mM compound alone
# Experimental: as §1, §2, §3, §4, §5, §6, §7
# GABAB receptor = GABAB receptor (Homo sapiens, UniProt Q9UBS5); test: Two-electrode voltage clamp at GABAB receptors (subtype not stated) expressed in Xenopus oocytes; settings: for effect as agonists or antagonists: 300 μM compound; for inhibition at 1000 µM: read-out: inhibition of 1 μM GABA (weak antagonist effect)
# Sequence of GABAB receptor (Q9UBS5 20-961): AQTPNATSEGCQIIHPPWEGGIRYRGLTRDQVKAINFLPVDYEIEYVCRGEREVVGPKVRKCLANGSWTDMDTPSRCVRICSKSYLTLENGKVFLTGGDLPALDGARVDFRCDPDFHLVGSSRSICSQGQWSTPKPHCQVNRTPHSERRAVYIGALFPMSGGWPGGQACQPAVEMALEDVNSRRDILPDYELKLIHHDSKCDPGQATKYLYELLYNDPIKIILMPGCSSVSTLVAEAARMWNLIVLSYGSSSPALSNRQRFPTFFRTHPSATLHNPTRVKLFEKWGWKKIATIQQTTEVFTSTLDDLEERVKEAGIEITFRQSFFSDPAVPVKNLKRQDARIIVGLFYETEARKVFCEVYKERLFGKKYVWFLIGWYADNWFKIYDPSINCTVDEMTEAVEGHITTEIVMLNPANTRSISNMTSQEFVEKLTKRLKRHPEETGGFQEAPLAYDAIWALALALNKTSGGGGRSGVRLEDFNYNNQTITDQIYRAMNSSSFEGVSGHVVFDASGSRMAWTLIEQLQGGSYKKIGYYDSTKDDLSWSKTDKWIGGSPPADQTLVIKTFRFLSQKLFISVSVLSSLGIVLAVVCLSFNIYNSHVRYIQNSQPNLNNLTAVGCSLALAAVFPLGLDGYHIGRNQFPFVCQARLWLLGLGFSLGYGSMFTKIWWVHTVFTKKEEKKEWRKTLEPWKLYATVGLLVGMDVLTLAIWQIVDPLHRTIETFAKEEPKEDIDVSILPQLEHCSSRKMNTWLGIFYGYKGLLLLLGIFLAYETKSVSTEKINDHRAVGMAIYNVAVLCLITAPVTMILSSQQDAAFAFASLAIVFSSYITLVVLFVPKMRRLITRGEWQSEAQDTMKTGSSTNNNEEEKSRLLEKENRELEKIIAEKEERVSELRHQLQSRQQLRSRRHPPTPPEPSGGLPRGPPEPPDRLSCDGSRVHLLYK
# Sequence of GABAB receptor (O75899 42-941 partner): as the sequence (O75899 42-941 partner) above
# GABAC receptors = settings: Woodward et al, 1993; read-out: KB as antagonist at GABAC receptors; cited from earlier work
SMILES,"Kb (GABAB (1b,2) receptor) [µM]","effect as agonist or antagonist (GABAB (1b,2) receptor)","current response to compound in the presence of GABA (GABAB (1b,2) receptor) [nA]","response to compound alone (GABAB (1b,2) receptor)","Kb (GABAB (1a,2) receptor) [µM]","effect as agonist or antagonist (GABAB (1a,2) receptor)","current response to compound in the presence of GABA (GABAB (1a,2) receptor) [nA]","response to compound alone (GABAB (1a,2) receptor)",Kb (GABAC (ρ1) receptor) [µM],antagonist activity in words (GABAC (ρ1) receptor),current response to compound in the presence of GABA (GABAC (ρ1) receptor) [nA],response to compound alone (GABAC (ρ1) receptor),Hill coefficient (nH) for GABA in the presence of the antagonist (GABAC (ρ1) receptor),"I/Imax, maximal GABA response maintained in the presence of the antagonist (GABAC (ρ1) receptor)",type of antagonism (GABAC (ρ1) receptor),inhibition at 100 µM (GABAC (ρ1) receptor) [%],antagonist activity in words (GABAC (ρ2) receptor),current response to compound in the presence of GABA (GABAC (ρ2) receptor) [nA],response to compound alone (GABAC (ρ2) receptor),inhibition at 100 µM (GABAC (ρ2) receptor) [%],further results
"CCCCP(=O)(O)[C@H]1CC[C@@H](N)C1 (racemic) [(±)-cis-3-ACPBPA, (±)-cis-(3-aminocyclopentanyl)butylphosphinic acid]",> 300,did not act as an agonist or antagonist; also recorded: no apparent effect as an agonist or antagonist; also recorded: no effect as agonists or antagonists; also recorded: No effect,20,no response was detected,> 300,did not act as an agonist or antagonist; also recorded: no apparent effect as an agonist or antagonist; also recorded: no effect as agonists or antagonists; also recorded: No effect,405,no response was detected,12.5 ± 1.2,potent antagonists,2,no recordable response,2.3±0.2,0.91±0.02,competitive antagonists,~100,potent antagonists,4,no detectable response,~100,potency relative to (±)-trans-3-ACPBPA (GABAC (ρ1) receptor; ratio of estimated KB values): 3.5 times; antagonist activity in words (GABAC (ρ3) receptor): potent antagonists; current response to compound in the presence of GABA (GABAC (ρ3) receptor): 120 nA; response to compound alone (GABAC (ρ3) receptor): no measurable response; inhibition at 100 µM (GABAC (ρ3) receptor): 85%; effect as agonist or antagonist (GABAA (α2β2γ2s) receptor): did not act as an agonist or antagonist; also recorded: no effect as an agonist or antagonist; also recorded: no effect as an agonist or an antagonist; also recorded: No effect; current response to compound in the presence of GABA (GABAA (α2β2γ2s) receptor): 65 nA; response to compound alone (GABAA (α2β2γ2s) receptor): no response was detected; Kb (GABAB receptor): > 1000 µM; effect as agonists or antagonists (GABAB receptor): no effect as agonists or antagonists; inhibition at 1000 µM (GABAB receptor): 10%
"CCCCP(=O)(O)[C@@H]1CC[C@@H](N)C1 (racemic) [(±)-trans-3-ACPBPA, (±)-trans-(3-aminocyclopentanyl)butylphosphinic acid]",> 300,did not act as an agonist or antagonist; also recorded: no apparent effect as an agonist or antagonist; also recorded: no effect as agonists or antagonists; also recorded: No effect,15,no detectable response,> 300,did not act as an agonist or antagonist; also recorded: no apparent effect as an agonist or antagonist; also recorded: no effect as agonists or antagonists; also recorded: No effect,407,no detectable response,43.8 ± 5.1,potent antagonists,34,no detectable response,2.2±0.2,0.94±0.05,competitive antagonists,77,potent antagonists,17,no measurable response,32,antagonist activity in words (GABAC (ρ3) receptor): potent antagonists; current response to compound in the presence of GABA (GABAC (ρ3) receptor): 455 nA; response to compound alone (GABAC (ρ3) receptor): no visible response; inhibition at 100 µM (GABAC (ρ3) receptor): 45%; effect as agonist or antagonist (GABAA (α2β2γ2s) receptor): did not act as an agonist or antagonist; also recorded: no effect as an agonist or antagonist; also recorded: no effect as an agonist or an antagonist; also recorded: No effect; current response to compound in the presence of GABA (GABAA (α2β2γ2s) receptor): 60 nA; response to compound alone (GABAA (α2β2γ2s) receptor): no detectable response; Kb (GABAB receptor): > 1000 µM; effect as agonists or antagonists (GABAB receptor): no effect as agonists or antagonists; inhibition at 1000 µM (GABAB receptor): 10%
"NCCCP(=O)(O)O [3-APA, 3-aminopropylphosphonic acid]",,,,,,,,,,,,,,,,,,,,,Kb (GABAC receptors): 1.8 µM
"NCCC[PH](=O)O [CGP27492, 3-aminopropylphosphinic acid]",,,,,,,,,,,,,,,,,,,,,Kb (GABAC receptors): 0.8 µM
